The text below walks through data of patent US7795244B2, “Penem prodrugs” (priority 2006, dated 2010).

Each structure is given as a SMILES string. Values after ≈ are worked out from the molar mass of the structure shown. Values joined by “and” are separate entries in the source; they are usually repeats but may differ in a detail not shown here. Equal values may be shown once.

The test system of series [1] is H. influenzae BLNAR. Nature of the series: Gerbil otitis media model. To be noted: Gerbil otitis media vs. H. influenzae BLNAR, oral TID for two days from 18 h post-infection, bacterial levels in middle ear fluid day four, repeat experiments.
Series [2] can be described thus: Stability in human intestinal juice (HIJ). To be noted: pooled human intestinal juice (4 subjects), buffered, pH 7.4.
Series [3] can be described thus: Liver S9 conversion efficiency. The class given is in vitro ADME, human. The conditions noted are these: liver S9 experiments.
Series [4] deals with S. pneumoniae 1095. Nature of the series: Murine acute systemic infection model. To be noted: Murine acute systemic infection vs. S. pneumoniae 1095; oral BID; survival day four post-infection; repeat experiments.
Series [5] can be described thus: Stability in the presence of porcine pancrelipase (PPE). To be noted: pig, porcine pancrelipase (ku-zyme HP) in phosphate buffer, 50 μM substrate, pH 7.4, 37° C. The class given is in vitro ADME.
Series [6] has as its system porcine pancrelipase (PPE). The description is as above. It is filed as in vitro ADME.
Series [7] can be described thus: Equilibrium solubility. The class given is physicochemical. The conditions noted are these: aqueous buffer, thermodynamic from solid, 25 mM phosphate buffer (pH 5), ambient temperature / 25° C. The method, then: Vials containing excess prodrug in phosphate buffer were rotated for up to 48 hours. After the equilibrium period, samples were pulled, filtered through 0.45 μm Gelman Acrodisc Nylon syringe filter and analyzed for drug concentration using HPLC. The HPLC conditions were: Column. C18, SymmetryShield RP, Waters, 4.6×150 mm, 3.5 micron; Mobile phase A: Acetonitrile; Mobile phase B: 0.1% TFA in water; Flow rate, 1 mL/min; Run Time: 30 min Inj. vol. 20 μL; Detection: 210 nm; Dissolving solvent: Acetonitrile/water (50:50 v:v).

Series [8] relates to S. pneumoniae 1095. Nature of the series: Murine respiratory tract infection model. To be noted: Murine respiratory tract infection vs. S. pneumoniae 1095; oral BID for two days from 18 h post-infection; survival day ten; repeat experiments.
Series [9] deals with K. pneumoniae 6485. Nature of the series: Murine acute systemic infection model. The conditions noted are these: Murine acute systemic infection vs. K. pneumoniae 6485; oral BID; survival day four post-infection; repeat experiments.
For series [10], the system named is Enterobacter cloacae. Nature of the series: MIC90 in vitro activity of sulopenem. It is filed as cell-based.
In series [11] the test system is Viridans Streptococcus group. Nature of the series: MIC90 in vitro activity of sulopenem. It is filed as cell-based.
The subject of series [12] is Streptococcus pneumoniae penicillin-resistant. Nature of the series: MIC90 in vitro activity of sulopenem. It is filed as cell-based.
For series [13], the system named is Citrobacter freundii. Nature of the series: MIC90 in vitro activity of sulopenem. It is filed as cell-based.
Series [14] relates to Klebsiella oxytoca. Nature of the series: MIC90 in vitro activity of sulopenem. It is filed as cell-based. How it is done: (§1) The in vitro activity of sulopenem (the parent acid (5R,6S)-6-[(1R)-1-hydroxyethyl]-7-oxo-3-[[(1R3S)-tetrahydro-1-oxido-3thienyl]thio]4-thia-1-azabicyclo[3.2.0]hept-2-ene-2-carboxylic acid) was evaluated against pathogens involved in community and hospital infections, as summarized in Table 1. .

Series [15] deals with Klebsiella pneumoniae. Nature of the series: MIC90 in vitro activity of sulopenem. It is filed as cell-based. How it is done:
as §1

The test system of series [16] is Prevotella spp. Nature of the series: MIC90 in vitro activity of sulopenem. It is filed as cell-based. How it is done: as §1
The test system of series [17] is Listeria monocytogenes. Nature of the series: MIC90 in vitro activity of sulopenem. It is filed as cell-based. The method, then:
as §1

Series [18] concerns Staphylococcus aureus oxacillin-S. Nature of the series: MIC90 in vitro activity of sulopenem. It is filed as cell-based. How it is done: as §1
For series [19], the system named is Streptococcus agalactiae (Group B). Nature of the series: MIC90 in vitro activity of sulopenem. It is filed as cell-based. How it is done:
as §1

The subject of series [20] is Salmonella/Shigella. Nature of the series: MIC90 in vitro activity of sulopenem. It is filed as cell-based. The method, then:
as §1

Series [21] concerns Moraxella catarrhelis β-lactamase+. Nature of the series: MIC90 in vitro activity of sulopenem. The class given is cell-based.
Series [22] has as its system Alloiococcus otitidis. Nature of the series: MIC90 in vitro activity of sulopenem. The class given is cell-based. The conditions noted are these: Alloiococcus otitis.
For series [23], the system named is Clostridium perfringens. Nature of the series: microbe, parasite or virus in culture. The class given is cell-based.
Series [24] concerns Proteus mirabilis. Nature of the series: MIC90 in vitro activity of sulopenem. The class given is cell-based.
The subject of series [25] is Staphylococcus saprophyticus. Nature of the series: MIC90 in vitro activity of sulopenem. The class given is cell-based.
Series [26] relates to Enterobacter aerogenes. Nature of the series: MIC90 in vitro activity of sulopenem. It is filed as cell-based. To be noted: Klebsiella aerogenes.
Series [27] relates to Escherichia coli. Nature of the series: MIC90 in vitro activity of sulopenem. The class given is cell-based.
Series [28] concerns Streptococcus pneumoniae levofloxacin-resistant. Nature of the series: MIC90 in vitro activity of sulopenem. The class given is cell-based.
The test system of series [29] is Citrobacter diversus. Nature of the series: MIC90 in vitro activity of sulopenem. The class given is cell-based. The conditions noted are these: Citrobacter koseri.
Series [30] has as its system Streptococcus pyogenes (Group A). Nature of the series: MIC90 in vitro activity of sulopenem. The class given is cell-based.
For series [31] the following is noted: in vivo, po; cited from earlier work.
Series [32] has as its system Haemophilus influenzae β-lactamase+. Nature of the series: MIC90 in vitro activity of sulopenem. It is filed as cell-based.
In series [33] the test system is Legionella pneumophila. Nature of the series: microbe, parasite or virus in culture. It is filed as cell-based.
Series [34] relates to Morganella morganii. Nature of the series: MIC90 in vitro activity of sulopenem. It is filed as cell-based.
In series [35] the test system is Neisseria meningitides. Nature of the series: MIC90 in vitro activity of sulopenem. It is filed as cell-based.
Series [36] concerns Corynebacterium spp (not C. jeikeium). Nature of the series: MIC90 in vitro activity of sulopenem. It is filed as cell-based.
The subject of series [37] is Klebsiella pneumoniae ESBL+. Nature of the series: MIC90 in vitro activity of sulopenem. The class given is cell-based.
In series [38] the test system is Haemophilus influenzae β-lactamase−. Nature of the series: MIC90 in vitro activity of sulopenem. It is filed as cell-based.
The test system of series [39] is Becteroides fragilis. Nature of the series: MIC90 in vitro activity of sulopenem. The class given is cell-based.
In series [40] the test system is Streptococcus bovis (Group D). Nature of the series: MIC90 in vitro activity of sulopenem. It is filed as cell-based. To be noted: Streptococcus equinus.
Series [41] relates to Streptococcus pneumoniae penicillin-intermediate. Nature of the series: MIC90 in vitro activity of sulopenem. The class given is cell-based.
For series [42], the system named is Streptococcus pneumoniae penicillin-susceptible. Nature of the series: MIC90 in vitro activity of sulopenem. It is filed as cell-based.
In series [43] the test system is Moraxella catarrhalis β-lactamase−. Nature of the series: MIC90 in vitro activity of sulopenem. The class given is cell-based.
The nature of series [44]: Pharmacokinetics of total radioactivity after single oral dose. The class given is in vivo, Sprague-Dawley Rats. To be noted: single oral 200 mg/kg; rats. How it is done:
A separate study using a single 200 mg/kg dose of each radiolabeled compound (pivalic acid and […]) was completed in rats to determine systemic exposure of dose following oral administration. The oral administration route was chosen because it is expected that the majority of hydrolysis of the prodrugs will occur within the intestine prior to entering systemic circulation. Plasma samples were obtained prior to dosing and at 0.25, 0.5, 1, 4, 8, and 24 hr post-dose. Samples were quantified for radioactivity by liquid scintillation counting and the counts were converted to […] equivalents/mL. As shown in Table 5 and FIG. 2, once absorbed, radioactivity associated with 2-ethylbutyric acid is cleared 4.5 fold faster than pivalic acid, reflecting efficient metabolic processing and excretion of the compound.

For series [45], the system named is plasma carnitine. Nature of the series: Acute model of carnitine depletion. The class given is in vivo. The conditions noted are these: 200 mg/kg BID orally for 4 days, Sprague-Dawley rats, relative to vehicle control (FIG. 1). How it is done: Of interest was a comparison between Compound 1 and […] in terms of the prodrug side chains' tendency or lack thereof to deplete plasma carnitine following metabolism of the intact prodrug. This was evaluated in vivo using an acute model of carnitine depletion in Sprague-Dawley rats. To understand the potential impact in vivo, radiolabeled pivalic acid (Compound B1 side chain) and 2-ethylbutyric acid (Compound 1 side chain) were administered orally at a dose of 200 mg/kg BID for 4 days to two separate groups of animals. […] Doses were administered in 100 mM sodium phosphate pH 6.6 at a dose volume of 10 mL/kg. Blood samples were obtained at 24 hour intervals following initiation of the study, processed for plasma and assayed for carnitine levels by LC/MS/MS. A vehicle control consisting of oral administration of an equal volume of buffer without compound was completed as a baseline comparison.

As usually defined, the ED50 is the dose that gives a 50% effect, or the effect in half of the subjects. A high value points to weaker potency. One may read the Km as the concentration of substrate that gives half-maximal velocity. Usually half-life stands for how long it takes for the measured level to halve. A word on the solubility: it is the concentration that dissolves in the medium under given conditions. High values mean much dissolved substance, low ones little dissolved substance. Turning to `CCC(CC)C(=O)OCOC(=O)C1=C(S[C@H]2CC[S@@+]([O-])C2)S[C@@H]2[C@@H]([C@@H](C)O)C(=O)N12` [Compound 1, (2-Ethyl-1-oxobutoxy)methyl (5R,6S)-6-[(1R)-1-hydroxyethyl]-7-oxo-3-[[(1R,3S)-tetrahydro-1-oxido-3-thienyl]thio]-4-thia-1-azabicyclo[3.2.0]hept-2-ene-2-carboxylate], the “intrinsic clearance in human intestinal juice (in words)” value is “relatively low intrinsic clearance”. Also, in series [1], the ED50 was 4.5 mg/kg. This compound also gave an ED50 in series [1] (Haemophilus influenzae, in Meriones unguiculatus, po) of 8.7 mg/kg. For the same compound, the Km in series [2] came out at 91 µM. The “conversion to sulopenem (in words)” value in [3] is “fully converted to sulopenem”. For the same compound, in series [4], the PD50 is 12.5 mg/kg and 6.3 mg/kg. In addition, the half-life at 50 µM in [5] (pH 7.4, ku-zyme Lot 1) worked out at 11.7 ± 3.8 min. In addition, the half-life at 50 µM in series [5] (pH 7.4, ku-zyme lot 2) is 17.9 min. For the same compound, the “PPE half-life (in words)” value in [6] is “relatively long PPE half-life”. The compound further gave a solubility in [7] of 1210 µg/mL (≈ 2530 µM). In [8], the PD50 was 16.4 mg/kg and 12.5 mg/kg and 9.5 mg/kg. Further, the “HIJ Clint (avg)” value (human, pH 7.4) is listed as 0.07 mL/min. In series [9], the PD50 was 88.6 mg/kg and 63.4 mg/kg.

For the compound `C[C@@H](O)[C@H]1C(=O)N2C(C(=O)O)=C(S[C@H]3CC[S@@+]([O-])C3)S[C@H]12` [Sulopenem, (5R,6S)-6-[(1R)-1-hydroxyethyl]-7-oxo-3-[[(1R,3S)-tetrahydro-1-oxido-3-thienyl]thio]-4-thia-1-azabicyclo[3,2.0]hept-2-ene-2-carboxylic acid], the MIC90 in series [10] is 1 µg/mL (≈ 2.86 µM); in series [11] it was 0.25 µg/mL (≈ 0.715 µM); in [12], 1 µg/mL (≈ 2.86 µM); in series [13] it was 0.25 µg/mL (≈ 0.715 µM); in [14] it was 0.125 µg/mL (≈ 0.358 µM); in series [15], 0.125 µg/mL (≈ 0.358 µM). Further, the MIC90 in series [16], in series [17], in series [18], in series [19], in [20] and in [21] was 0.125 µg/mL (≈ 0.358 µM) throughout. Also, the MIC90 in series [22] came out at 1 µg/mL (≈ 2.86 µM); in series [23], 0.06 µg/mL (≈ 0.172 µM); in [24] it was 0.5 µg/mL (≈ 1.43 µM); in series [25], 0.5 µg/mL (≈ 1.43 µM); in series [26], 0.5 µg/mL (≈ 1.43 µM); in [27] it was 0.06 µg/mL (≈ 0.172 µM). The MIC90 came to 0.5 µg/mL (≈ 1.43 µM) in series [28]; 0.06 µg/mL (≈ 0.172 µM) in series [29]; 0.03 µg/mL (≈ 0.0858 µM) in series [30]; 0.5 µg/mL (≈ 1.43 µM) in series [32]; 0.06 µg/mL (≈ 0.172 µM) in [33]; 2 µg/mL (≈ 5.72 µM) in series [34]. The MIC90 in series [35] was 0.06 µg/mL (≈ 0.172 µM); in [36], 2 µg/mL (≈ 5.72 µM); in [37] it was 0.25 µg/mL (≈ 0.715 µM); in series [38], 0.25 µg/mL (≈ 0.715 µM); in series [39] it was 0.5 µg/mL (≈ 1.43 µM); in [40] it was 0.06 µg/mL (≈ 0.172 µM). Further, the MIC90 in [41] came to 0.25 µg/mL (≈ 0.715 µM); in series [42], 0.03 µg/mL (≈ 0.0858 µM); in series [43] it was 0.03 µg/mL (≈ 0.0858 µM). In [31], the “oral bioavailability (in words)” value is “not appreciably orally bioavailable”.

As to `CCC(CC)C(=O)O` [2-ethylbutyric acid], the “clearance of radioactivity, fold faster than pivalic acid” value in series [44] is reported as 4.5 fold. Besides, the “change in plasma carnitine” value in series [45] is on record as “statistically insignificant changes in plasma carnitine”.
